In BindingDB's records for doi:10.1016/s0960-894x(98)00730-6 (University At Stony Brook, 1999) one finds IC50 data, which are given here for 8 molecules.

Where a SMILES comes first, the peptide text is derived from it. [ ]: non-standard residue; d: D form. The star is where a group is joined. Biotinyl(3aR,4R,6aS) = O=C1N[C@@H]2[C@@H](CS[C@@H]2CCCCC(=O)*)N1; Phe(4-guanidino) = N=C(N)Nc1ccc(C[C@H](N)C(=O)O)cc1; Bpa = N[C@@H](Cc1ccc(C(=O)c2ccccc2)cc1)C(=O)O; X3 = O=C1N[C@@H]2CSC(CCCCC(=O)*)[C@@H]2N1; Phe(4-F) = N[C@@H](Cc1ccc(F)cc1)C(=O)O; X4 = O=C(c1ccccc1)c1ccc(CCC(=O)*)cc1; Orn = NCCC[C@H](N)C(=O)O; X1 = O=C(C=Cc1ccccc1)*; Propionyl = CCC(=O)*

The nature of the assay: Human Thrombin receptor 1 (PAR-1) antagonistic ability to inhibit SFLLRN-NH2 (2.7 uM)-induced platelet aggregation.
On to `N=C(N)NCCC[C@H](NC(=O)[C@H](Cc1ccc(C(=O)c2ccccc2)cc1)NC(=O)[C@H](Cc1ccc(N=C(N)N)cc1)NC(=O)[C@H](Cc1ccc(F)cc1)NC(=O)C=Cc1ccccc1)C(=O)N[C@@H](CCCNC(=O)CCCC[C@H]1SC[C@H]2NC(=O)N[C@H]21)C(=O)O` [(2S)-5-{5-[(3aR,4R,6aS)-2-oxo-hexahydro-1H-thieno[3,4-d]imidazolidin-4-yl]pentanamido}-2-[(2S)-2-[(2S)-3-(4-benzoylphenyl)-2-[(2S)-3-(4-carbamimidamidophenyl)-2-[(2S)-3-(4-fluorophenyl)-2-[(2E)-3-phenylprop-2-enamido]propanamido]propanamido]propanamido]-5-carbamimidamidopentanamido]pentanoic acid] (X1-[Phe(4-F)][Phe(4-guanidino)][Bpa]R[Orn](Biotinyl(3aR,4R,6aS))-OH), for which the IC50 was 3.4 µM.

In the case of `CC(C)C[C@H](NC(=O)[C@H](Cc1ccc(N=C(N)N)cc1)NC(=O)[C@H](Cc1ccc(F)cc1)NC(=O)C=Cc1ccccc1)C(=O)N[C@@H](Cc1ccc(C(=O)c2ccccc2)cc1)C(=O)N[C@@H](CCCNC(=O)CCCCC1SC[C@H]2NC(=O)N[C@@H]12)C(=O)O` (stereo partly drawn) [(2S)-5-{5-[(3aR,6aS)-2-oxo-hexahydro-1H-thieno[3,4-d]imidazolidin-4-yl]pentanamido}-2-[(2S)-3-(4-benzoylphenyl)-2-[(2S)-2-[(2S)-3-(4-carbamimidamidophenyl)-2-[(2S)-3-(4-fluorophenyl)-2-[(2E)-3-phenylprop-2-enamido]propanamido]propanamido]-4-methylpentanamido]propanamido]pentanoic acid] (X1-[Phe(4-F)][Phe(4-guanidino)]L[Bpa][Orn](X3)-OH), the half-maximal inhibitory concentration (IC50) was 9.7 µM. Regarding `CCC(=O)NCCC[C@H](NC(=O)[C@H](Cc1ccc(C(=O)c2ccccc2)cc1)NC(=O)[C@H](CC(C)C)NC(=O)[C@H](Cc1ccc(N=C(N)N)cc1)NC(=O)[C@H](Cc1ccc(F)cc1)NC(=O)C=Cc1ccccc1)C(=O)O` [(S)-2-((S)-3-(4-Benzoyl-phenyl)-2-{(S)-2-[(S)-2-{(S)-3-(4-fluoro-phenyl)-2-[(E)-(3-phenyl-acryloyl)amino]-propionylamino}-3-(4-guanidino-phenyl)-propionylamino]-4-methyl-pentanoylamino}-propionylamino)-5-propionylamino-pentanoic acid] (X1-[Phe(4-F)][Phe(4-guanidino)]L[Bpa][Orn](Propionyl)-OH), inhibition was half-maximal at 9 µM (IC50). With `CC(C)C[C@H](NC(=O)[C@H](Cc1ccc(N=C(N)N)cc1)NC(=O)[C@H](Cc1ccc(F)cc1)NC(=O)CCc1ccc(C(=O)c2ccccc2)cc1)C(=O)N[C@@H](CCCNC(=N)N)C(=O)O` [(S)-2-{(S)-2-[(S)-2-[(S)-2-[3-(4-Benzoyl-phenyl)-propionylamino]-3-(4-fluoro-phenyl)-propionylamino]-3-(4-guanidino-phenyl)-propionylamino]-4-methyl-pentanoylamino}-5-guanidino-pentanoic acid] (X4-[Phe(4-F)][Phe(4-guanidino)]LR-OH) the figure was 3.1 µM; with `CC(C)C[C@H](NC(=O)[C@H](Cc1ccc(N=C(N)N)cc1)NC(=O)[C@H](Cc1ccc(F)cc1)NC(=O)C=Cc1ccccc1)C(=O)N[C@@H](CCCNC(=N)N)C(=O)O` [(S)-2-{(S)-2-[(S)-2-{(S)-3-(4-Fluoro-phenyl)-2-[(E)-(3-phenyl-acryloyl)amino]-propionylamino}-3-(4-guanidino-phenyl)-propionylamino]-4-methyl-pentanoylamino}-5-guanidino-pentanoic acid] (X1-[Phe(4-F)][Phe(4-guanidino)]LR-OH), 0.3 µM. `N=C(N)NCCC[C@H](NC(=O)[C@H](Cc1ccc(C(=O)c2ccccc2)cc1)NC(=O)[C@H](Cc1ccc(N=C(N)N)cc1)NC(=O)[C@H](Cc1ccc(F)cc1)NC(=O)C=Cc1ccccc1)C(=O)O` [(S)-2-{(S)-3-(4-Benzoyl-phenyl)-2-[(S)-2-{(S)-3-(4-fluoro-phenyl)-2-[(E)-(3-phenyl-acryloyl)amino]-propionylamino}-3-(4-guanidino-phenyl)-propionylamino]-propionylamino}-5-guanidino-pentanoic acid] (X1-[Phe(4-F)][Phe(4-guanidino)][Bpa]R-OH) gave an IC50 of 6 µM. Then `CC(C)C[C@H](NC(=O)[C@H](Cc1ccc(N=C(N)N)cc1)NC(=O)[C@H](Cc1ccc(F)cc1)NC(=O)C=Cc1ccccc1)C(=O)N[C@@H](Cc1ccc(C(=O)c2ccccc2)cc1)C(=O)O` [(S)-3-(4-Benzoyl-phenyl)-2-{(S)-2-[(S)-2-{(S)-3-(4-fluoro-phenyl)-2-[(E)-(3-phenyl-acryloyl)amino]-propionylamino}-3-(4-guanidino-phenyl)-propionylamino]-4-methyl-pentanoylamino}-propionic acid] (X1-[Phe(4-F)][Phe(4-guanidino)]L[Bpa]-OH), with 13 µM; and `CCC(=O)NCCC[C@H](NC(=O)[C@H](CCCNC(=N)N)NC(=O)[C@H](Cc1ccc(C(=O)c2ccccc2)cc1)NC(=O)[C@H](Cc1ccc(N=C(N)N)cc1)NC(=O)[C@H](Cc1ccc(F)cc1)NC(=O)C=Cc1ccccc1)C(=O)O` [(S)-2-((S)-2-{(S)-3-(4-Benzoyl-phenyl)-2-[(S)-2-{(S)-3-(4-fluoro-phenyl)-2-[(E)-(3-phenyl-acryloyl)amino]-propionylamino}-3-(4-guanidino-phenyl)-propionylamino]-propionylamino}-5-guanidino-pentanoylamino)-5-propionylamino-pentanoic acid] (X1-[Phe(4-F)][Phe(4-guanidino)][Bpa]R[Orn](Propionyl)-OH), with 3.1 µM.
